Measurements published in ChEMBL document CHEMBL5365467 (J Med Chem, 2023).
Activity calls are given as the source filed them. No cut-off for these calls is given here.

Assays:
Androgen receptor = biological target: T1, Androgen receptor (Homo sapiens, UniProt P10275)
T1 sequence (P10275 whole entry): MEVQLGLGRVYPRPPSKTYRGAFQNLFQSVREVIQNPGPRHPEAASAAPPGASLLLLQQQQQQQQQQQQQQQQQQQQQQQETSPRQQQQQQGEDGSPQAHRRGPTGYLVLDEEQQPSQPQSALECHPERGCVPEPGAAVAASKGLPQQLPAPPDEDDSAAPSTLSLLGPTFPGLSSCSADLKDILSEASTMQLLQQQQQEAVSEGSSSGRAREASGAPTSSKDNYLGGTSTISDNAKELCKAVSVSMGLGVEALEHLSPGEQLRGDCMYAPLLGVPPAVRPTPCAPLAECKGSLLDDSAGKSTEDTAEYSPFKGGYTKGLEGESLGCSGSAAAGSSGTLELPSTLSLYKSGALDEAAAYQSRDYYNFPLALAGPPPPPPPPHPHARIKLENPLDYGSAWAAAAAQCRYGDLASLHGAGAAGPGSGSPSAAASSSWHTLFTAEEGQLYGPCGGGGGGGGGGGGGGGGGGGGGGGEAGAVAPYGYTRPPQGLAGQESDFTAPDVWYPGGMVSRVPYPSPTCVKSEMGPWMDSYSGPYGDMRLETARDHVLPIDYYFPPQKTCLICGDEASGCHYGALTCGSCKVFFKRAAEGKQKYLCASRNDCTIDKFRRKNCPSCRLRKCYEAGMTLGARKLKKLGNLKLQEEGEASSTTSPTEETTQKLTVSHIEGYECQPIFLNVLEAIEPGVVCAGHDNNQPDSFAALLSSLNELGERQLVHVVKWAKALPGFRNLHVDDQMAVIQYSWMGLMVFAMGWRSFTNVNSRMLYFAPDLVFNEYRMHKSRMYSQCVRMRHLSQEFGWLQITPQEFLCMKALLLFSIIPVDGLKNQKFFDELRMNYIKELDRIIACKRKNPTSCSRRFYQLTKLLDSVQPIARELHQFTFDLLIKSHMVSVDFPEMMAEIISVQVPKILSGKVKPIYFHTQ

[1] = Clearance in Sprague-Dawley rat at 1 mg/kg, iv measured upto 24 hrs by LC-MS/MS analysis; format: ADME, organism-based; conditions: in vivo
[2] = Volume of distribution at steady state in Sprague-Dawley rat at 1 mg/kg, iv measured upto 24 hrs by LC-MS/MS analysis; format: ADME, organism-based; conditions: in vivo, read-out: Vdss
[3] = Half life in Sprague-Dawley rat at 3 mg/kg, po measured upto 24 hrs by LC-MS/MS analysis; format: ADME, organism-based; conditions: in vivo
[4] = Cmax in Sprague-Dawley rat at 3 mg/kg, po measured upto 24 hrs by LC-MS/MS analysis; format: ADME, organism-based; design: dose 3 mg/kg, time < 24 hrs, route po; conditions: in vivo
[5] = AUC (0 to t) in Sprague-Dawley rat at 1 mg/kg, iv measured upto 24 hrs by LC-MS/MS analysis; format: ADME, organism-based; design: dose 1 mg/kg, time < 24 hrs, route iv; conditions: in vivo
[6] = Oral bioavailability in Sprague-Dawley rat at 3 mg/kg measured upto 24 hrs by LC-MS/MS analysis; format: ADME, organism-based; conditions: in vivo
[7] = Half life in Sprague-Dawley rat at 1 mg/kg, iv measured upto 24 hrs by LC-MS/MS analysis; format: ADME, organism-based; conditions: in vivo
[8] = AUC (0 to t) in Sprague-Dawley rat at 3 mg/kg, po measured upto 24 hrs by LC-MS/MS analysis; format: ADME, organism-based; design: dose 3 mg/kg, time < 24 hrs, route po; conditions: in vivo
LNCaP = assay: Growth inhibition in human LNCaP cells assessed as reduction in cell viability
[9] = biological target: Protein cereblon/Androgen receptor (Homo sapiens, UniProt P10275+Q96SW2); assay: PROTAC activity at AR/CRBN in AR-positive human VCaP cells assessed as induction of androgen receptor degradation measured at 24 hrs; format: cell-based
Chain of Protein cereblon/Androgen receptor (Q96SW2 whole entry, one chain of several): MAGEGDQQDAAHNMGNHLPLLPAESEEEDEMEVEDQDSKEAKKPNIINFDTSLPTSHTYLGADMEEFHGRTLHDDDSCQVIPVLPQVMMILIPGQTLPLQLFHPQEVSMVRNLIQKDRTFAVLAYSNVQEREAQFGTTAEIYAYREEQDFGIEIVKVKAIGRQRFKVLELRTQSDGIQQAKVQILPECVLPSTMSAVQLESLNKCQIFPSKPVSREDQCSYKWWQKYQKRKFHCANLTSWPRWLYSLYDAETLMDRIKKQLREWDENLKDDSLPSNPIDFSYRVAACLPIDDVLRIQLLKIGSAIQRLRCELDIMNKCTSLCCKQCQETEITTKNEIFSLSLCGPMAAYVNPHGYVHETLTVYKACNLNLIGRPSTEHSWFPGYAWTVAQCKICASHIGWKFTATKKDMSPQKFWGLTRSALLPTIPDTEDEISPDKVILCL

VCaP [10] = assay: Downregulation of PCLAF protein expression in human VCaP cells at 10 uM measured for 24 hrs by proteomics analysis; format: functional, cell-based
VCaP [11] = assay: Downregulation of HAUS8 protein expression in human VCaP cells at 10 uM measured for 24 hrs by proteomics analysis; format: functional, cell-based
VCaP [12] = assay: Downregulation of PLOD2 protein expression in human VCaP cells at 10 uM measured for 24 hrs by proteomics analysis; format: functional, cell-based
VCaP [13] = assay: Antitumor activity against human VCaP cells xenografted in CB17-SCID mouse assessed as tumor growth inhibition at 10 mg/kg, po administered for 21 days; format: functional; conditions: 504 h, time 21 day, read-out: TGI
VCaP [14] = assay: Growth inhibition in human VCaP cells

Row | IC50 (LNCaP) [nM] | IC50 (VCaP [14]) [nM] | SMILES | IC50 (Androgen receptor) [nM] | clearance [1] [mL/min/kg] | Vd [2] [L/kg] | half-life [3] [h] | Cmax [4] [ng/mL] | AUC(0-t) at 24 h [5] [ng·h/mL] | bioavailability [6] [%] | half-life [7] [h] | AUC(0-t) at 24 h [8] [ng·h/mL] | DC50 [9] | Activity (VCaP [10]) | Activity (VCaP [11]) | Activity (VCaP [12]) | inhibition in vivo at 10 mg/kg (VCaP [13]) [%]
1 |  |  | CN(c1ccc(C#N)c(Cl)c1)[C@H]1CC[C@H](NC(=O)c2ccc(N3CCN(C4CN(c5ccc6c(c5)C(=O)N(C5CCC(=O)NC5=O)C6=O)C4)CC3)cc2)CC1 (stereo not given in full) | 15 | 12.5 | 5.3 | 6.9 | 57 | 1300 | 13 | 5.5 | 535 |  |  |  |  | 
2 | 213 |  | CNC(=O)c1ccc(N2C(=S)N(c3ccc(C#N)c(C(F)(F)F)c3)C(=O)C2(C)C)cc1F [ENZALUTAMIDE] |  |  |  |  |  |  |  |  |  |  |  |  |  | 
3 |  |  | C[C@H]1CC2(CCN(c3ccc(C(=O)N4CCN(C)CC4)cc3)CC2)CN1c1ccc(C#N)c(Cl)c1 |  |  |  |  |  |  |  |  |  | Not Active | inactive | inactive | inactive | 
4 | 18.5 | 16.2 | N#Cc1ccc(O[C@H]2CC[C@H](NC(=O)c3ccc(N4CCC(CN5CCN(c6cc7c(cc6F)C(=O)N(C6CCC(=O)NC6=O)C7=O)CC5)CC4)nn3)CC2)cc1Cl (stereo not given in full) [BAVDEGALUTAMIDE] |  | 6 | 4.6 | 27.1 | 280 | 2270 | 52 | 12 | 3600 |  |  |  |  | 47
